Measurements as given in US9212182B2, “Bicyclic sulfonamide compounds as sodium channel inhibitors” (AMGEN INC., priority 2013, dated 2015).
pIC50: −log10 of the molar value.

What follows are molecules tested against Nav 1.7 (Homo sapiens (Human), UniProt Q15858) (assay: in-vitro Nav 1.7 PX (IC50)). Settings: not given.
Format: cell-based

Chain of Nav 1.7 (Q15858 whole entry): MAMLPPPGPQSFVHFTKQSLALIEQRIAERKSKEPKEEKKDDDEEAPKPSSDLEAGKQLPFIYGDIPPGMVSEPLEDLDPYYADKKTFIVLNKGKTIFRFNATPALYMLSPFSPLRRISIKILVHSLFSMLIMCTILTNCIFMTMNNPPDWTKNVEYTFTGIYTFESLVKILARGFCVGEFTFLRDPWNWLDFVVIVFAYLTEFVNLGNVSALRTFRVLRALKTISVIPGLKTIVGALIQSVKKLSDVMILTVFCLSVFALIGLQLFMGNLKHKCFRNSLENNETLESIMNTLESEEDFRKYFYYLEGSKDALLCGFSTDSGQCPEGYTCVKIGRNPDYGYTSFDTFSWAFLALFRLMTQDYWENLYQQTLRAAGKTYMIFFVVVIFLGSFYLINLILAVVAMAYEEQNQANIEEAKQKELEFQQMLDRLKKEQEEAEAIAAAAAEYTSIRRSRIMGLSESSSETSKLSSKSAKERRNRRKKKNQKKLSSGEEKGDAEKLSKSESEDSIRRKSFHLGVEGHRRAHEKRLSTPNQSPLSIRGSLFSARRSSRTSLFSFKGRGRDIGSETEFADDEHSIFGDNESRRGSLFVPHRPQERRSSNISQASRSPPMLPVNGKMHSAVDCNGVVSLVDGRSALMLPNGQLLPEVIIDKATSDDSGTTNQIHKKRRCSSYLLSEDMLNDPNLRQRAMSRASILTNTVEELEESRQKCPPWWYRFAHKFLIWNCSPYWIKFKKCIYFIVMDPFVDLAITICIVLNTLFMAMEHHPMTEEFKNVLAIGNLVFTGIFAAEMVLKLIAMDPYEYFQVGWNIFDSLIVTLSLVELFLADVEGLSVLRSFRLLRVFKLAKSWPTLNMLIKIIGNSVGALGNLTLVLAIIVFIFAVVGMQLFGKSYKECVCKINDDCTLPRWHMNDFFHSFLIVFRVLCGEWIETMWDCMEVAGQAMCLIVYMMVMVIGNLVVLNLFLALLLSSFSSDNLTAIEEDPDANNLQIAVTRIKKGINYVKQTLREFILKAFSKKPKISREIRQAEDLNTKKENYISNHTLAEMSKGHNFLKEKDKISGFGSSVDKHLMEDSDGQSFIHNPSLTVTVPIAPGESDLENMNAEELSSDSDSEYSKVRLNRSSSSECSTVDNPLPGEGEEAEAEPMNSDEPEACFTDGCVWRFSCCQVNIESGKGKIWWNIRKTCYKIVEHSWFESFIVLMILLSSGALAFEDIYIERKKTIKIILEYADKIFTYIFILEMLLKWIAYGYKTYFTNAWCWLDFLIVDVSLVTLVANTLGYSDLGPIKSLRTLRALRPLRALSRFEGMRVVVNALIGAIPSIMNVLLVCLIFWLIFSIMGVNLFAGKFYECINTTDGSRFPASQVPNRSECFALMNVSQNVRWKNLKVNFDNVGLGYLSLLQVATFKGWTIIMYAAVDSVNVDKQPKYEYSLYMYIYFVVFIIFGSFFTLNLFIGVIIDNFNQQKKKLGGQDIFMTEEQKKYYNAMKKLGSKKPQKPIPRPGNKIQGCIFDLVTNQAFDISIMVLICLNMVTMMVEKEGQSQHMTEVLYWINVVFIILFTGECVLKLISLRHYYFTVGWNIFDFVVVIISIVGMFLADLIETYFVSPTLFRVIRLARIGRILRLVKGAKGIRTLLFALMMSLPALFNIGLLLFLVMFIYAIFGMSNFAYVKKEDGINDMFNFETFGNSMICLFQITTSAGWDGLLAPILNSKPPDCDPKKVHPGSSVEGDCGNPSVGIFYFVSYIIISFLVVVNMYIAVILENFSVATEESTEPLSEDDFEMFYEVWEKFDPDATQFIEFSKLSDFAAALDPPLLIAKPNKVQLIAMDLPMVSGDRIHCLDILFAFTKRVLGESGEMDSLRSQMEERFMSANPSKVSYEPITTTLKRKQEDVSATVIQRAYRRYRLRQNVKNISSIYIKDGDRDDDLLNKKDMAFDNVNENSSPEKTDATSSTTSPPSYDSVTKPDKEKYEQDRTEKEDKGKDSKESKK

Row | pIC50 | Compound
1 | 7.10 | COc1ccc(-c2cccc(F)c2)cc1-n1c(=O)ccc2cc(S(=O)(=O)Nc3ccon3)ccc21 [Example 482, 1-(3′-fluoro-4-methoxy-3-biphenylyl)-N-3-isoxazolyl-2-oxo-1,2-dihydro-6-quinolinesulfonamide]
2 | 6.16 | COc1ccc(-c2cncc(F)c2)cc1-n1c(=O)ccc2cc(S(=O)(=O)Nc3ccon3)ccc21 [Example 485, 1-(5-(5-fluoro-3-pyridinyl)-2-methoxyphenyl)-N-3-isoxazolyl-2-oxo-1,2-dihydro-6-quinolinesulfonamide]
3 | 4.57 | COc1ccc(-c2cnn(C)c2)cc1-n1c(=O)ccc2cc(S(=O)(=O)Nc3ccon3)ccc21 [Example 486, N-3-isoxazolyl-1-(2-methoxy-5-(1-methyl-1H-pyrazol-4-yl)phenyl)-2-oxo-1,2-dihydro-6-quinolinesulfonamide]
4 | 6.52 | COc1ccc(-c2cc(F)cnc2OC)cc1-n1c(=O)ccc2cc(S(=O)(=O)Nc3ccon3)ccc21 [Example 488, 1-(5-(5-fluoro-2-methoxy-3-pyridinyl)-2-methoxyphenyl)-N-3-isoxazolyl-2-oxo-1,2-dihydro-6-quinolinesulfonamide]
5 | 5.68 | COc1ccc(-c2cncc(C#N)c2)cc1-n1c(=O)ccc2cc(S(=O)(=O)Nc3ccon3)ccc21 [Example 491, 1-(5-(5-cyano-3-pyridinyl)-2-methoxyphenyl)-N-3-isoxazolyl-2-oxo-1,2-dihydro-6-quinolinesulfonamide]
6 | 6.53 | COc1ccc(-c2cncc(C(F)(F)F)c2)cc1-n1c(=O)ccc2cc(S(=O)(=O)Nc3ccon3)ccc21 [Example 492, N-3-isoxazolyl-1-(2-methoxy-5-(5-(trifluoromethyl)-3-pyridinyl)phenyl)-2-oxo-1,2-dihydro-6-quinolinesulfonamide]
7 | 6.38 | COc1ccc(-c2cccc(C#N)c2)cc1-n1c(=O)ccc2cc(S(=O)(=O)Nc3ccon3)ccc21 [Example 493, 1-(3′-cyano-4-methoxy-3-biphenylyl)-N-3-isoxazolyl-2-oxo-1,2-dihydro-6-quinolinesulfonamide]
8 | 6.17 | COc1ccc(-c2cncc(Cl)c2)cc1-n1c(=O)ccc2cc(S(=O)(=O)Nc3ccon3)ccc21 [Example 494, 1-(5-(5-chloro-3-pyridinyl)-2-methoxyphenyl)-N-3-isoxazolyl-2-oxo-1,2-dihydro-6-quinolinesulfonamide]
9 | 5.61 | COc1ccc(-c2cccnc2F)cc1-n1c(=O)ccc2cc(S(=O)(=O)Nc3ccon3)ccc21 [Example 495, 1-(5-(2-fluoro-3-pyridinyl)-2-methoxyphenyl)-N-3-isoxazolyl-2-oxo-1,2-dihydro-6-quinolinesulfonamide]
10 | 5.56 | COc1ccc(-c2ccnc(F)c2)cc1-n1c(=O)ccc2cc(S(=O)(=O)Nc3ccon3)ccc21 [Example 496, 1-(5-(2-fluoro-4-pyridinyl)-2-methoxyphenyl)-N-3-isoxazolyl-2-oxo-1,2-dihydro-6-quinolinesulfonamide]

Row | Compound | pIC50
11 | COc1cc(-c2cccc(F)c2)c(Cl)cc1-n1c(=O)cc(C)c2cc(S(=O)(=O)Nc3ccon3)ccc21 [Example 567, 1-(2-chloro-3′-fluoro-5-methoxy-4-biphenylyl)-N-3-isoxazolyl-4-methyl-2-oxo-1,2-dihydro-6-quinolinesulfonamide] | 6.79

Same assay, conditions: in-vitro Nav 1.7 PX data

Row | pIC50 | Compound
12 | 6.14 | O=c1ccc2cc(S(=O)(=O)Nc3ccon3)ccc2n1-c1ccc(-c2cccc(C(F)(F)F)c2)cc1 [Example 591, N-3-isoxazolyl-2-oxo-1-(3′-(trifluoromethyl)-4-biphenylyl)-1,2-dihydro-6-quinolinesulfonamide]
13 | 5.78 | COc1cc(-c2ccccn2)c(F)cc1-n1c(=O)ccc2cc(S(=O)(=O)Nc3ccon3)ccc21 [Example 594, 1-(5-fluoro-2-methoxy-4-(2-pyridinyl)phenyl)-N-3-isoxazolyl-2-oxo-1,2-dihydro-6-quinolinesulfonamide]
14 | 5.75 | COc1cc(-c2cccc(F)c2)ncc1-n1c(=O)ccc2cc(S(=O)(=O)Nc3ccon3)ccc21 [Example 601, 1-(6-(3-fluorophenyl)-4-methoxy-3-pyridinyl)-N-3-isoxazolyl-2-oxo-1,2-dihydro-6-quinolinesulfonamide]
15 | 7.89 | COc1ccc(-c2cc(F)cc(Cl)c2)cc1-n1c(=O)ccc2cc(S(=O)(=O)Nc3ccncn3)ccc21 [Example 610, 1-(3′-chloro-5′-fluoro-4-methoxy-3-biphenylyl)-2-oxo-N-4-pyrimidinyl-1,2-dihydro-6-quinolinesulfonamide]
16 | 7.74 | COc1cc(Cl)c(-c2cc(F)cc(Cl)c2)cc1-n1c(=O)ccc2cc(S(=O)(=O)Nc3ccon3)ccc21 [Example 613, 1-(3′,6-dichloro-5′-fluoro-4-methoxy-3-biphenylyl)-N-3-isoxazolyl-2-oxo-1,2-dihydro-6-quinolinesulfonamide]
17 | 5.41 | COc1cnc(Cl)cc1-n1c(=O)ccc2cc(S(=O)(=O)Nc3ccon3)ccc21 [Example 617, 1-(2-chloro-5-methoxy-4-pyridinyl)-N-3-isoxazolyl-2-oxo-1,2-dihydro-6-quinolinesulfonamide]
18 | 6.22 | COc1cnc(-c2cc(F)cc(Cl)c2)cc1-n1c(=O)ccc2cc(S(=O)(=O)Nc3ccon3)ccc21 [Example 618, 1-(2-(3-chloro-5-fluorophenyl)-5-methoxy-4-pyridinyl)-N-3-isoxazolyl-2-oxo-1,2-dihydro-6-quinolinesulfonamide]
19 | 5.09 | COc1ccc(C2CCOCC2)cc1-n1c(=O)ccc2cc(S(=O)(=O)Nc3ccon3)ccc21 [Example 620, N-3-isoxazolyl-1-(2-methoxy-5-(tetrahydro-2H-pyran-4-yl)phenyl)-2-oxo-1,2-dihydro-6-quinolinesulfonamide]

Same assay, conditions: in-vitro Nav 1.7 PX data (PatchXpress)

Row | pIC50 | Compound
20 | 6.51 | Cc1cc(-c2cc(OCC#N)c(-n3c(=O)ccc4cc(S(=O)(=O)Nc5ccon5)ccc43)cc2F)ccc1Cl [Example 622, 1-(4′-chloro-5-(cyanomethoxy)-2-fluoro-3′-methyl-[1,1′-biphenyl]-4-yl)-N-(isoxazol-3-yl)-2-oxo-1,2-dihydroquinoline-6-sulfonamide]
21 | 5.11 | N#CCOc1cc(Br)c(F)cc1-n1c(=O)ccc2cc(S(=O)(=O)Nc3ccon3)ccc21 [Example 623, 1-(4-bromo-2-(cyanomethoxy)-5-fluorophenyl)-N-(isoxazol-3-yl)-2-oxo-1,2-dihydroquinoline-6-sulfonamide]
22 | 5.76 | O=c1ccc2cc(S(=O)(=O)Nc3ccon3)ccc2n1-c1cc(F)c(-c2cc(F)cc(F)c2)cc1O [Example 624, N-(isoxazol-3-yl)-2-oxo-1-(2,3′,5′-trifluoro-5-hydroxy-[1,1′-biphenyl]-4-yl)-1,2-dihydroquinoline-6-sulfonamide]

Same assay, conditions: in-vitro PatchXpress (PX)

Row | pIC50 | Compound
23 | 4.84 | COc1cc(-c2cnn(C)c2)c(F)cc1-n1c(=O)ccc2cc(S(=O)(=O)Nc3ccon3)ccc21 [Example 405, 1-(5-fluoro-2-methoxy-4-(1-methyl-1H-pyrazol-4-yl)phenyl)-N-3-isoxazolyl-2-oxo-1,2-dihydro-6-quinolinesulfonamide]
24 | 6.00 | COc1cc(N2CC(F)(F)C2)c(F)cc1-n1c(=O)ccc2cc(S(=O)(=O)Nc3ccon3)ccc21 [Example 406, 1-(4-(3,3-difluoro-1-azetidinyl)-5-fluoro-2-methoxyphenyl)-N-3-isoxazolyl-2-oxo-1,2-dihydro-6-quinolinesulfonamide]
25 | 6.80 | COc1cc(-c2cncc(Cl)c2)c(F)cc1-n1c(=O)ccc2cc(S(=O)(=O)Nc3ccon3)ccc21 [Example 407, 1-(4-(5-chloro-3-pyridinyl)-5-fluoro-2-methoxyphenyl)-N-3-isoxazolyl-2-oxo-1,2-dihydro-6-quinolinesulfonamide]
26 | 7.23 | COc1nc(-c2cc(F)cc(F)c2)c(Cl)cc1-n1c(=O)ccc2cc(S(=O)(=O)Nc3ccon3)ccc21 [Example 447, 1-(5-chloro-6-(3,5-difluorophenyl)-2-methoxypyridin-3-yl)-N-(isoxazol-3-yl)-2-oxo-1,2-dihydroquinoline-6-sulfonamide]
27 | 6.94 | COc1nc(-c2ccc(Cl)c(C)c2)c(Cl)cc1-n1c(=O)ccc2cc(S(=O)(=O)Nc3ccon3)ccc21 [Example 448, 1-(5-chloro-6-(4-chloro-3-methylphenyl)-2-methoxypyridin-3-yl)-N-(isoxazol-3-yl)-2-oxo-1,2-dihydroquinoline-6-sulfonamide]
28 | 7.07 | COc1nc(-c2cc(F)cc(Cl)c2)c(Cl)cc1-n1c(=O)ccc2cc(S(=O)(=O)Nc3ccon3)ccc21 [Example 449, 1-(5-chloro-6-(3-chloro-5-fluorophenyl)-2-methoxypyridin-3-yl)-N-(isoxazol-3-yl)-2-oxo-1,2-dihydroquinoline-6-sulfonamide]
29 | 5.55 | COc1cc(-c2ccc(C)nc2)c(F)cc1-n1c(=O)ccc2cc(S(=O)(=O)Nc3ccon3)ccc21 [Example 500, 1-(5-fluoro-2-methoxy-4-(6-methyl-3-pyridinyl)phenyl)-N-3-isoxazolyl-2-oxo-1,2-dihydro-6-quinolinesulfonamide]
30 | 5.74 | COc1cc(-c2ccncc2)c(F)cc1-n1c(=O)ccc2cc(S(=O)(=O)Nc3ccon3)ccc21 [Example 505, 1-(5-fluoro-2-methoxy-4-(4-pyridinyl)phenyl)-N-3-isoxazolyl-2-oxo-1,2-dihydro-6-quinolinesulfonamide]
31 | 6.31 | COc1cc(N2CC(C(F)(F)F)C2)c(F)cc1-n1c(=O)ccc2cc(S(=O)(=O)Nc3ccon3)ccc21 [Example 530, 1-(5-fluoro-2-methoxy-4-(3-(trifluoromethyl)-1-azetidinyl)phenyl)-N-3-isoxazolyl-2-oxo-1,2-dihydro-6-quinolinesulfonamide]
32 | 6.47 | COc1cc(-c2cc(F)cnc2OC)c(F)cc1-n1c(=O)ccc2cc(S(=O)(=O)Nc3ccon3)ccc21 [Example 531, 1-(5-fluoro-4-(5-fluoro-2-methoxy-3-pyridinyl)-2-methoxyphenyl)-N-3-isoxazolyl-2-oxo-1,2-dihydro-6-quinolinesulfonamide]
33 | 6.55 | COc1cc(-c2cnc(C)c(Cl)c2)c(F)cc1-n1c(=O)ccc2cc(S(=O)(=O)Nc3ccon3)ccc21 [Example 532, 1-(4-(5-chloro-6-methyl-3-pyridinyl)-5-fluoro-2-methoxyphenyl)-N-3-isoxazolyl-2-oxo-1,2-dihydro-6-quinolinesulfonamide]
